US20260053932A1, “COMPOUNDS AND METHODS FOR THE TARGETED DEGRADATION OF ANDROGEN RECEPTOR AND ASSOCIATED METHODS OF USE” (Arvinas Operations, Inc., priority 2020, published 2026)

What follows are molecules tested on androgen receptor (AR) in LNCaP and/or VCaP cells (assay: Androgen Receptor ELISA assay (AR degradation)). Details: LNCaP and/or VCaP cells; 5 hours incubation; media with R1881; read-out: DC50 Code* (degradation of AR ELISA).
Assay type: cell-based
Method in brief: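 VCaP cells grown ≥3 days, then treated 5 h with compound in media containing 1 nM R1881 (10× stock). Cells lysed and AR quantified by sandwich ELISA (mouse AR detection Ab, HRP anti-mouse, TMB). DC50 and Dmax derived from AR degradation.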

SMILES	DC50 [nM]
COc1cc(O[C@H]2CC[C@H](NC(=O)c3cnc(N4CCC(CN(C(C)C)[C@H]5C[C@H](Oc6ccc7c(c6)C(=O)N(C6CCC(=O)NC6=O)C7)C5)CC4)cn3)CC2)ccc1C#N (stereo partly drawn) [Compound 34, N-((1r,4r)-4-(4-cyano-3-methoxyphenoxy)cyclohexyl)-5-(4-((((1r,3r)-3-((2-(2,6-dioxopiperidin-3-yl)-3-oxoisoindolin-5-yl)oxy)cyclobutyl) (isopropyl)amino)methyl)piperidin-1-yl)pyrazine-2-carboxamide]	< 1
CC(C)N(CC1CCN(c2cnc(C(=O)N[C@H]3CC[C@H](Oc4ccc(C#N)c(Cl)c4)CC3)cn2)CC1)[C@H]1C[C@H](Oc2ccc3c(c2)C(=O)N([C@@H]2C(=O)NC(=O)C[C@H]2C)C3=O)C1 [Compound 75, N-((1r,4r)-4-(3-chloro-4-cyanophenoxy)cyclohexyl)-5-(4-((isopropyl((1S,3r)-3-((2-((3S,4R)-4-methyl-2,6-dioxopiperidin-3-yl)-1,3-dioxoisoindolin-5-yl)oxy)cyclobutyl)amino)methyl)piperidin-1-yl)pyrazine-2-carboxamide]	> 100
COc1cc(O[C@H]2C[C@H](N(CC3CCN(c4cnc(C(=O)N[C@H]5CC[C@H](Oc6cc(C)c(C#N)c(C)c6)CC5)cn4)CC3)C(C)=O)C2)cc2c1C(=O)N(C1CCC(=O)NC1=O)C2=O (stereo partly drawn) [Compound 23, N-((1r,4r)-4-(4-cyano-3,5-dimethylphenoxy)cyclohexyl)-5-(4-((N-((1r,3r)-3-((2-(2,6-dioxopiperidin-3-yl)-7-methoxy-1,3-dioxoisoindolin-5-yl)oxy)cyclobutyl)acetamido)methyl)piperidin-1-yl)pyrazine-2-carboxamide]	< 1
CC1(N2C(=O)c3cc(F)c(N4CCN(CC5CCN(c6ccc(C(=O)N[C@H]7CC[C@H](Oc8ccc(C#N)c(Cl)c8)CC7)nn6)CC5)CC4)cc3C2=O)CCC(=O)NC1=O (stereo partly drawn) [Compound 69, N-((1r,4r)-4-(3-chloro-4-cyanophenoxy)cyclohexyl)-6-(4-((4-(6-fluoro-2-(3-methyl-2,6-dioxopiperidin-3-yl)-1,3-dioxoisoindolin-5-yl)piperazin-1-yl)methyl)piperidin-1-yl)pyridazine-3-carboxamide]	< 1

Same assay, conditions: degradation of AR ELISA in LNCaP and/or VCaP cells; Table 2C; read-out: DC50 Code*

SMILES	DC50 [nM]
COCCOCCOCCN(CC1CCN(c2ncc(C(=O)N[C@H]3C(C)(C)[C@H](Oc4cc(C)c(C#N)c(C)c4)C3(C)C)cn2)CC1)[C@H]1C[C@H](Oc2ccc3c(c2)C(=O)N(C2CCC(=O)NC2=O)C3=O)C1 (stereo partly drawn) [compound 144, N-((1r,3r)-3-(4-cyano-3,5-dimethylphenoxy)-2,2,4,4-tetramethylcyclobutyl)-2-(4-(2-((1r,3r)-3-((2-(2,6-dioxopiperidin-3-yl)-1,3-dioxoisoindolin-5-yl)oxy)cyclobutyl)-5,8,11-trioxa-2-azadodecyl)piperidin-1-yl)pyrimidine-5-carboxamide]	< 1
COc1cc(O[C@H]2C[C@H](N(CCN3CCOCC3)CC3CCN(c4cnc(C(=O)N[C@H]5C(C)(C)[C@H](Oc6cc(C)c(C#N)c(C)c6)C5(C)C)cn4)CC3)C2)cc2c1C(=O)N(C1CCC(=O)NC1=O)C2=O (stereo partly drawn) [compound 210, N-((1r,3r)-3-(4-cyano-3,5-dimethylphenoxy)-2,2,4,4-tetramethylcyclobutyl)-5-(4-((((1r,3r)-3-((2-(2,6-dioxopiperidin-3-yl)-7-methoxy-1,3-dioxoisoindolin-5-yl)oxy)cyclobutyl)(2-morpholinoethyl)amino)methyl)piperidin-1-yl)pyrazine-2-carboxamide]	< 1
COc1cc(O[C@H]2C(C)(C)[C@H](NC(=O)c3c(C)nc(N4CCC(CN(C(C)C)[C@H]5C[C@H](Oc6ccc7c(c6)C(=O)N(C6CCC(=O)NC6=O)C7=O)C5)CC4)nc3C)C2(C)C)ccc1C#N (mixture of isomers) [compound 211, rac-N-((1r,3r)-3-(4-cyano-3-methoxyphenoxy)-2,2,4,4-tetramethylcyclobutyl)-2-(4-((((1r,3r)-3-((2-(2,6-dioxopiperidin-3-yl)-1,3-dioxoisoindolin-5-yl)oxy)cyclobutyl) (isopropyl)amino)methyl)piperidin-1-yl)-4,6-dimethylpyrimidine-5-carboxamide]	< 1
Cc1cc(O[C@H]2C(C)(C)[C@H](NC(=O)c3cnc(N4CCC(CN(CCN5CCOCC5)[C@H]5C[C@H](Oc6ccc7c(c6)C(=O)N(C6CCC(=O)NC6=O)C7=O)C5)CC4)cn3)C2(C)C)cc(C)c1C#N (stereo partly drawn) [compound 230, N-((1r,3r)-3-(4-cyano-3,5-dimethylphenoxy)-2,2,4,4-tetramethylcyclobutyl)-5-(4-((((1r,3r)-3-((2-(2,6-dioxopiperidin-3-yl)-1,3-dioxoisoindolin-5-yl)oxy)cyclobutyl)(2-morpholinoethyl)amino)methyl)piperidin-1-yl)pyrazine-2-carboxamide]	< 1
COCCOCCOCCOCCOCCN(CC1CCN(c2ncc(C(=O)N[C@H]3C(C)(C)[C@H](Oc4cc(C)c(C#N)c(C)c4)C3(C)C)cn2)CC1)[C@H]1C[C@H](Oc2ccc3c(c2)C(=O)N(C2CCC(=O)NC2=O)C3=O)C1 (stereo partly drawn) [compound 155, N-((1r,3r)-3-(4-cyano-3,5-dimethylphenoxy)-2,2,4,4-tetramethylcyclobutyl)-2-(4-(2-((1r,3r)-3-((2-(2,6-dioxopiperidin-3-yl)-1,3-dioxoisoindolin-5-yl)oxy)cyclobutyl)-5,8,11,14,17-pentaoxa-2-azaoctadecyl)piperidin-1-yl)pyrimidine-5-carboxamide]	< 1
CCN(C1CCN(c2ccc(C(=O)N[C@H]3C(C)(C)[C@H](Oc4cc(C)c(C#N)c(C)c4)C3(C)C)cc2)CC1)[C@H]1C[C@H](Oc2ccc3c(c2)C(=O)N(C2CCC(=O)NC2=O)C3=O)C1 (mixture of isomers) [compound 173, rac-N-((1r,3r)-3-(4-cyano-3,5-dimethylphenoxy)-2,2,4,4-tetramethylcyclobutyl)-4-(4-(((1r,3r)-3-((2-(2,6-dioxopiperidin-3-yl)-1,3-dioxoisoindolin-5-yl)oxy)cyclobutyl) (ethyl)amino)piperidin-1-yl)benzamide]	< 1
COc1cc(O[C@H]2C[C@H](N(CC3(F)CCN(c4ncc(C(=O)N[C@H]5C(C)(C)[C@H](Oc6cc(C)c(C#N)c(C)c6)C5(C)C)cn4)CC3)C(C)C)C2)cc2c1C(=O)N(C1CCC(=O)NC1=O)C2=O (stereo partly drawn) [compound 231, N-((1r,3r)-3-(4-cyano-3,5-dimethylphenoxy)-2,2,4,4-tetramethylcyclobutyl)-2-(4-((((1r,3r)-3-((2-(2,6-dioxopiperidin-3-yl)-7-methoxy-1,3-dioxoisoindolin-5-yl)oxy)cyclobutyl) (isopropyl)amino)methyl)-4-fluoropiperidin-1-yl)pyrimidine-5-carboxamide]	< 1

Same assay, conditions: degradation of AR ELISA in LNCaP and/or VCaP cells; read-out: DC50 Code*

SMILES	DC50 [nM]
COc1cc(O[C@H]2C(C)(C)[C@H](NC(=O)c3cnc(N4CCC(CN(CC[S+]([O-])CC5(C)COC5)[C@H]5C[C@H](Oc6ccc7c(c6)C(=O)N(C6CCC(=O)NC6=O)C7=O)C5)CC4)cn3)C2(C)C)ccc1C#N (mixture of isomers) [compound 243, rac-N-((1r,3r)-3-(4-cyano-3-methoxyphenoxy)-2,2,4,4-tetramethylcyclobutyl)-5-(4-((((1r,3r)-3-((2-(2,6-dioxopiperidin-3-yl)-1,3-dioxoisoindolin-5-yl)oxy)cyclobutyl)(2-(((3-methyloxetan-3-yl)methyl)sulfinyl)ethyl)amino)methyl)piperidin-1-yl)pyrazine-2-carboxamide]	1 to 10
